Data as given in patent publication US9429582B2, “Tyrosine-phosphorylated WBP2, a novel cancer target and biomarker” (National University of Singapore, priority 2010, dated 2016).

Columns and labels:
Assay type in all cases: cell-based, human
WBP2 = test: EGF-induced WBP2 tyrosine phosphorylation in HeLa (IP/IB); conditions: HeLa co-transfected with EGFR and WBP2; 50 ng/ml EGF 5 min; 1 hr pre-treatment with 1 μM AZD0530
Method: (§1) A: HeLa were co-transfected with EGFR and V5-tagged WT or individual Y→F mutant of WBP2. 24 hr post-transfection, cells were serum-starved and stimulated with 50 ng/ml EGF for 5 min with/without 1 hr pre-treatment with 10 μM Iressa or 1 μM AZD0530. Whole cell lysates were used for IP/IB analysis with antibodies indicated. B: HeLa were co-transfected with EGFR and V5-tagged WT or individual Y→F mutant of WBP2 in the absence or presence of Src-DN overexpression. C: HeLa were co-transfected with (a) WBP2; (b) WBP2 and EGFR; (c) WBP2 and wild-type (WT) Src; (d) WBP2 and constitutively active (CA) Src; (e) WBP2, EGFR and WT-Src; (f) WBP2, EGFR ad CA-Src; (g) Y192-231F, EGFR and WT-Src. For experiments B and C, 24 hr post-transfection, cells were serum-starved overnight and stimulated with 50 ng/ml EGF for 5 min. Whole cell lysates were used for IP/IB analysis with antibodies indicated. D: HeLa were co-transfected with EGFR and V5-tagged WT or individual Y→F mutant of WBP2. 24 hrpost-transfection, cells were serum-starved and stimulated with 50 ng/ml EGF for 5 min with/without 1 hr pre-treatment with 10 μM Iressa or 1 μM AZD0530. Whole cell lysates were used for IP/IB analysis with antibodies indicated. E: HeLa were co-transfected with EGFR and V5-tagged WT or individual Y→F mutant of WBP2 in the absence or presence of Src-DN-K295M overexpression. F: HeLa were cotransfected with (a) WBP2; (b) WBP2 and EGFR; (c) WBP2 and wild-type (WT) Src; (d) WBP2 and constitutively-active (CA) Src-Y529F; (e) WBP2, EGFR and WT-Src; (f) WBP2, EGFR ad CA-Src; (g) Y192-231F, EGFR and WT-Src. For experiments B and C, 24 hr post-transfection, cells were serum-starved overnight and stimulated with 50 ng/ml EGF for 5 min. Whole cell lysates were used for IP/IB analysis with antibodies indicated. G: MCF7 were co-transfected with V5-tagged WBP2 and either negative control siRNA, c-Yes siRNA or c-Src siRNA. For both experiments, 24 hr post-transfection, cells were serum-starved overnight and stimulated with 50 ng/ml EGF for 5 min. Whole cell lysates were used for IP/IB analysis with antibodies indicated. […]

EGFR = EGFR activation (auto-phosphorylation) in EGF-stimulated HeLa (IB); conditions: 50 ng/ml EGF 5 min, c-Src inhibition, 1 μM AZD0530
Method: as §1, with “overexpression.” for “overexpression. F: HeLa were cotransfected with (a) WBP2; (b) WBP2 and EGFR; (c) WBP2 and wild-type (WT) Src; (d) WBP2 and constitutively-active (CA) Src-Y529F; (e) WBP2, EGFR and WT-Src; (f) WBP2, EGFR ad CA-Src; (g) Y192-231F, EGFR and WT-Src. For experiments B and C, 24 hr post-transfection, cells were serum-starved overnight and stimulated with 50 ng/ml EGF for 5 min. Whole cell lysates were used for IP/IB analysis with antibodies indicated. G: MCF7 were co-transfected with V5-tagged WBP2 and either negative control siRNA, c-Yes siRNA or c-Src siRNA. For both experiments, 24 hr post-transfection, cells were serum-starved overnight and stimulated with 50 ng/ml EGF for 5 min. Whole cell lysates were used for IP/IB analysis with antibodies indicated.”

[1] = test system: YAP, ERα, cyclin D1, Wnt3a, pGSKβ, β-catenin, c-Myc, Bcl-2, c-Yes, p16, p21, MMP2; test: Immunoblot of Y192-231E mutant expressing MCF7 with WBP2 knockdown; conditions: WBP2 expression silenced in WBP2 Y192-231E stable transfectant
Method: A: Whole cell lysates from vector, WBP2-WT, WBP2-Y192-231E mutant and WBP2-Y192-231F mutant expressing MCF7 or Y192-231E mutant expressing MCF7 with WBP2 knockdown were used for IB analysis with antibodies indicated. B: Vector, WBP2-WT, WBP2-Y192-231E mutant or WBP2-Y192-231F mutant-expressing MCF7 were co-transfected with TOPFlash (top panel) or ERE-Luciferase (bottom panel) reporter construct. For cells co-transfected ERE-luciferase, they were either left alone or stimulated with 50 ng/ml Wnt3a ligand for 16 hrs. TCF/ERα luciferase activities in various conditions were then assayed. **P<0.01, ***P<0.001, Student's t-test (2-tailed). […] Cell numbers were measured. […]
Whole cell lysates from vector, WBP2-WT, WBP2-Y192-231E mutant and WBP2-Y192-231F mutant expressing MCF7 (A) or Y192-231E mutant expressing MCF7 with WBP2 knockdown (B) were used for IB analysis with antibodies indicated. Their expression levels were quantified in three independent experiments and the averages were presented relative to actin. […] TCF(C)/ER[…](D) luciferase activities in various conditions were then assayed and analyzed in relative to untreated vector control. **P<0.01, ***P<0.001, Student's t-test (2-tailed). […] Cell numbers were measured daily and compared in relative to vehicle treated vector-expressing cells on Day 0. […] Cell numbers were measured and compared in relative to vehicle-treated cells. […]

Row | Compound | EGF-induced tyrosine phosphorylation of WBP2 (WBP2) | EGFR activation (EGFR auto-phosphorylation) (EGFR) | expression of c-Yes, p16, p21 and active MMP2 [1] | expressions of YAP, ERα, cyclin D1, Wnt3a, pGSKβ, β-catenin, c-Myc [1]
1 | CN1CCN(CCOc2cc(OC3CCOCC3)c3c(Nc4c(Cl)ccc5c4OCO5)ncnc3c2)CC1 [AZD0530] | abolished | significant reduction |  | 
2 | 5′-AGCAUCCGCUGUCCGAACUCAAUGG-3′ ((5'-AGCAUCCGCUGUCCGAACUCAAUGG-3'; as printed in the source, key not given here) [WBP2 siRNA, small interfering RNA designed to suppress the expression of WBP2] |  |  | remained unchanged | suppressed
